From US20120309676A1, “Lantibiotic Salts” (priority 2010, published 2012)
Where a name gives a salt, the structure may show the parent alone.

Key:
[1] = In vivo plasma half-life in mice; details: male, mouse, 29.76 mg/kg; CD-1 mice, IV dose of Example 1 (9.3 mL/Kg of 3.2 mg/mL solution); Compound 1 in plasma by LC-MS
Protocol: The in vivo half-life of Compound 1 in mice was determined by measurement of its plasma concentrations at various time points following IV dosing. 18 male CD-1 mice aged 7-9 weeks were dosed IV with a 9.3 mL/Kg dose of a 3.2 mg/mL solution of Example 1 in 15% hydroxypropyl-β-cyclodextrin/4.4% glucose/1 mM potassium phosphate (pH=7.6). Plasma samples were obtained at 10, 20, 30, 60, 120 and 240 min post-dose, sampling from 3 animals at each time point. Concentrations of Compound 1 in plasma were determined by LC-MS quantification.

Aqueous solubility = format: physicochemical; details: for pH of saturated solution: aqueous saturated solution
Description: Solubility as employed herein is used generically to refer to a distribution of a compound of formula (I) in a solvent (for example water, saline or an aqueous isotonic solution such as glucose) such that the formulation/composition resulting therefrom is substantially free of visible aggregates and for example is substantially transparent when viewed by the naked eye. Such a formulation would therefore include a whole range of formats which are suitable for infusion and/or injection such as solutions, suspensions, colloids and the like. […]

[2] = system: Methicillin Resistant Staphylococcus aureus (MRSA, ATCC 33591); test: Neutropaenic mouse thigh infection model; format: in vivo
Protocol: In vivo efficacy of compounds of the present invention in the treatment of bacterial tissue infections was evaluated using a neutropaenic mouse thigh model.
Groups of 6 male ICR mice weighing 24±2 g were used. Test animals were immunosuppressed by 2 intraperitoneal injections of cyclophosphamide, the first at 150 mg/Kg 4 days before infection (day-4) and the second at 100 mg/Kg 1 day before infection (day-1). On day 0, individual animals were inoculated intramuscularly (IM) into the right thigh of test animals with 1.15×10^8 CFU/mouse of Methicillin Resistant Staphylococcus aureus (MRSA, ATCC 33591) suspended in 100 μL of sterile PBS, pH 7.4. Vehicle and test substances were administered intravenously (IV) at a dose volume of 6 mL/Kg, 2 and 14 hours after thigh infection. Example 1 and vancomycin were dissolved in 15% hydroxypropyl-β-cyclodextrin/4.4% glucose/1.5 mM potassium phosphate buffer, pH 7.0 and administered at doses of 5, 10, 20, 30 and 40 mg/Kg. At 26 hours after inoculation, muscle of the right thigh of each test mouse was harvested. From an additional group with no treatment, muscle of the right thigh was harvested at 2 hours after inoculation for the basal CFU determination. The removed muscle tissues were then homogenized in 3-4 mL of PBS, pH 7.4 with a ceramic mortar. Homogenates of 0.1 mL were used for serial 10-fold dilutions and plated on Mueller Hinton broth in 1.5% Bacto agar for CFU determination. […] Results (mean cfu/g) are graphically represented in FIG. 2.

[3] = system: Staphylococcus aureus methicillin resistant ATCC 33591; test: Mouse bacteraemia model, second experiment, IV dosing; format: in vivo; details: for number of deaths: after 7 days, groups of 6 mice
Protocol: In a second experiment Groups of 6 male CD-1 (Crl.) derived mice weighing 24±2 g were used. Mice were inoculated intraperitoneally (IP) with an LD90-100 of Staphylococcus aureus methicillin resistant ATCC 33591 (1.35×10^8 CFU/mouse) in 0.5 mL of BHI broth containing 5% mucin. Example 1 was dissolved in 5% dextrose/1.5 mM potassium phosphate, pH 5.0 and doses of 1, 3, 5 and 10 mg/Kg were administered intravenously (IV) to test animals at 1 and 13 hour(s) after bacteria challenge. The dosing volume was 5 mL/Kg. Mortality was recorded once daily for 7 days.

[4] = system: Staphylococcus aureus methicillin resistant ATCC 33591; test: Mouse bacteraemia model, SC dosing; format: in vivo
Protocol: Groups of 6 male CD-1 (Crl.) derived mice weighing 24±2 g were used. Mice were inoculated intraperitoneally (IP) with an LD90-100 of Staphylococcus aureus methicillin resistant ATCC 33591 (1.1×10^7 CFU/mouse) in 0.5 mL of BHI broth containing 5% mucin. Example 1 and vancomycin were dissolved in 15% HPbetaCD/4.4% glucose/0.5 mM KH2PO4, pH 5.0 and doses of 1, 3, 5, 10 and 20 mg/Kg were administered subcutaneously (SC) to test animals at 0, 2 and 24 hour(s) after bacteria challenge. The dosing volume was 5 mL/Kg. Mortality was recorded once daily for 7 days (FIG. 1). The ED50 for each compound was determined by nonlinear regression.

[5] = system: Methicillin Resistant Staphylococcus aureus (MRSA, ATCC 33591); test: Neutropaenic mouse thigh infection model, further experiment; format: in vivo; details: IV 2 and 14 h after infection, 2.5-50 mg/Kg, FIG. 3
Protocol: In a further experiment, groups of 6 male ICR mice weighing 24±2 g were used. Test animals were immunosuppressed by 2 intraperitoneal injections of cyclophosphamide, the first at 150 mg/Kg 4 days before infection (day-4) and the second at 100 mg/Kg 1 day before infection (day-1). On day 0, individual animals were inoculated intramuscularly (IM) into the right thigh of test animals with 1.5×10^5 CFU/mouse of Methicillin Resistant Staphylococcus aureus (MRSA, ATCC 33591) suspended in 100 μL of sterile PBS, pH 7.4. Vehicle and test substances were administered intravenously (IV) at a dose volume of 8 mL/Kg, 2 and 14 hours after thigh infection. Example 1 was dissolved in 5% dextrose/1 mM potassium phosphate, pH 5.0 and administered at doses of 2.5, 5, 10, 15, 25 and 50 mg/Kg. At 26 hours after inoculation, muscle of the right thigh of each test mouse was harvested. From an additional group with no treatment, muscle of the right thigh was harvested at 2 hours after inoculation for the basal CFU determination. The removed muscle tissues were then homogenized in 3-4 mL of PBS, pH 7.4 with a ceramic mortar. Homogenates of 0.1 mL were used for serial 10-fold dilutions and plated on Mueller Hinton broth in 1.5% Bacto agar for CFU determination.

[6] = aqueous, * = calculations made from two determinations

## CCC(C)[C@@H]1NC(=O)[C@@H]2NC(=O)[C@H](CC(C)C)NC(=O)[C@H](NC(=O)[C@H]3CSC[C@H](N)C(=O)N[C@@H](CO)C(=O)NCC(=O)N[C@@H](Cc4c[nH]c5ccccc45)C(=O)N[C@@H](C(C)C)C(=O)N3)[C@H](C)SC[C@H](NC(=O)[C@H](CCC(=O)O)NC1=O)C(=O)NCC(=O)N[C@@H]1C(=O)N[C@@H](CC(C)C)C(=O)N[C@@H](C(C)C)C(=O)N[C@@H](CS[C@H]2C)C(=O)N[C@@H](C)C(=O)N[C@H](C(=O)NCc2cc(Cl)cc(Cl)c2)CS[C@H]1C (stereo partly drawn) [Compound 1, Deoxyactagardine B (3,5-dichlorobenzylamine) monocarboxamide]
[1]
  half-life: ~2 h

## CC[C@H](C)[C@@H]1NC(=O)[C@@H]2NC(=O)[C@H](CC(C)C)NC(=O)[C@H](NC(=O)[C@@H]3CSC[C@@H](N)C(=O)N[C@@H](CO)C(=O)NCC(=O)N[C@@H](Cc4c[nH]c5ccccc45)C(=O)N[C@@H](C(C)C)C(=O)N3)[C@H](C)SC[C@H](NC(=O)[C@H](CCC(=O)O)NC1=O)C(=O)NCC(=O)N[C@H]1C(=O)N[C@@H](CC(C)C)C(=O)N[C@@H](C(C)C)C(=O)N[C@@H](CS[C@H]2C)C(=O)N[C@@H](C)C(=O)N[C@H](C(=O)NCc2cc(Cl)cc(Cl)c2)CS[C@H]1C [N-ethyl-D-glucamine salt]
Aqueous solubility
  pH of saturated solution: 8.43
Aqueous solubility; [6]
  Solubility: 11.16* mg/mL
Aqueous solubility; salts of compound 1, listed as N-ethyl glucamine salt of compound 1
  Solubility: more than 10 mg/mL

## CC[C@H](C)[C@@H]1NC(=O)[C@@H]2NC(=O)[C@H](CC(C)C)NC(=O)[C@H](NC(=O)[C@@H]3CSC[C@@H](N)C(=O)N[C@@H](CO)C(=O)NCC(=O)N[C@@H](Cc4c[nH]c5ccccc45)C(=O)N[C@@H](C(C)C)C(=O)N3)[C@H](C)SC[C@H](NC(=O)[C@H](CCC(=O)O)NC1=O)C(=O)NCC(=O)N[C@H]1C(=O)N[C@@H](CC(C)C)C(=O)N[C@@H](C(C)C)C(=O)N[C@@H](CS[C@H]2C)C(=O)N[C@@H](C)C(=O)N[C@H](C(=O)NCc2cc(Cl)cc(Cl)c2)CS[C@H]1C [diethanolamine salt]
Aqueous solubility
  pH of saturated solution: 8.78
Aqueous solubility; [6]
  Solubility: 6.94* mg/mL
Aqueous solubility; salts of compound 1, listed as diethanolamine salt of compound 1
  Solubility: more than 5 mg/mL

## CC[C@H](C)[C@@H]1NC(=O)[C@@H]2NC(=O)[C@H](CC(C)C)NC(=O)[C@H](NC(=O)[C@@H]3CSC[C@@H](N)C(=O)N[C@@H](CO)C(=O)NCC(=O)N[C@@H](Cc4c[nH]c5ccccc45)C(=O)N[C@@H](C(C)C)C(=O)N3)[C@H](C)SC[C@H](NC(=O)[C@H](CCC(=O)O)NC1=O)C(=O)NCC(=O)N[C@H]1C(=O)N[C@@H](CC(C)C)C(=O)N[C@@H](C(C)C)C(=O)N[C@@H](CS[C@H]2C)C(=O)N[C@@H](C)C(=O)N[C@H](C(=O)NCc2cc(Cl)cc(Cl)c2)CS[C@H]1C [ethanolamine salt]
Aqueous solubility
  pH of saturated solution: 8.74
Aqueous solubility; [6]
  Solubility: 10.5* mg/mL
Aqueous solubility; salts of compound 1, listed as ethanolamine salt of compound 1
  Solubility: more than 10 mg/mL

## CC[C@H](C)[C@@H]1NC(=O)[C@@H]2NC(=O)[C@H](CC(C)C)NC(=O)[C@H](NC(=O)[C@@H]3CSC[C@@H](N)C(=O)N[C@@H](CO)C(=O)NCC(=O)N[C@@H](Cc4c[nH]c5ccccc45)C(=O)N[C@@H](C(C)C)C(=O)N3)[C@H](C)SC[C@H](NC(=O)[C@H](CCC(=O)O)NC1=O)C(=O)NCC(=O)N[C@H]1C(=O)N[C@@H](CC(C)C)C(=O)N[C@@H](C(C)C)C(=O)N[C@@H](CS[C@H]2C)C(=O)N[C@@H](C)C(=O)N[C@H](C(=O)NCc2cc(Cl)cc(Cl)c2)CS[C@H]1C [triethanolamine salt]
Aqueous solubility
  pH of saturated solution: 8.43
Aqueous solubility; [6]
  Solubility: 1.04 mg/mL

## CC[C@H](C)[C@@H]1NC(=O)[C@@H]2NC(=O)[C@H](CC(C)C)NC(=O)[C@H](NC(=O)[C@@H]3CSC[C@@H](N)C(=O)N[C@@H](CO)C(=O)NCC(=O)N[C@@H](Cc4c[nH]c5ccccc45)C(=O)N[C@@H](C(C)C)C(=O)N3)[C@H](C)SC[C@H](NC(=O)[C@H](CCC(=O)O)NC1=O)C(=O)NCC(=O)N[C@H]1C(=O)N[C@@H](CC(C)C)C(=O)N[C@@H](C(C)C)C(=O)N[C@@H](CS[C@H]2C)C(=O)N[C@@H](C)C(=O)N[C@H](C(=O)NCc2cc(Cl)cc(Cl)c2)CS[C@H]1C [tromethamine salt]
Aqueous solubility
  pH of saturated solution: 8.53
Aqueous solubility; [6]
  Solubility: 2.38 mg/mL

## CN[C@H](CC(C)C)C(=O)N[C@H]1C(=O)N[C@@H](CC(N)=O)C(=O)N[C@H]2C(=O)N[C@H]3C(=O)N[C@H](C(=O)N[C@H](C(=O)O)c4cc(O)cc(O)c4-c4cc3ccc4O)[C@H](O)c3ccc(c(Cl)c3)Oc3cc2cc(c3O[C@@H]2O[C@H](CO)[C@@H](O)[C@H](O)[C@H]2O[C@H]2C[C@](C)(N)[C@H](O)[C@H](C)O2)Oc2ccc(cc2Cl)[C@H]1O [vancomycin, reference compound]
[2]; IV at 5, 10, 20, 30 and 40 mg/Kg×2, 2 and 14 h after thigh infection, harvest at 26 h
  antimicrobial effect: significant antimicrobial effect
[2]; at 30 mg/kg and above, IV ×2, thigh muscle at 26 h
  reductions of CFU/g: > 100 fold
[3]; 1 mg/kg IV at 1 and 13 h after challenge
  number of deaths: 5
[3]; 3 mg/kg IV at 1 and 13 h after challenge
  number of deaths: 3
[3]; 5 mg/kg IV at 1 and 13 h after challenge
  number of deaths: 1
[3]; 10 mg/kg IV at 1 and 13 h after challenge
  number of deaths: 0
[3]; 1, 3, 5 and 10 mg/kg
  survival of mice after 7 days: dose-dependent incease in survival
[4]; 3, 5, 10 and 20 mg/Kg×3, SC
  antimicrobial effect against S. aureus (MRSA) in mice: significant antimicrobial effect
[4]; Staphylococcus aureus, ATCC33591, CD-1 mice, SC at 0, 2 and 24 h after challenge, mortality over 7 days, nonlinear regression, read-out: estimated ED50
  ED50: 3 mg/kg
[5]
  bacterial counts in the thigh tissue: dose dependent reduction
